Data on 11 compounds can be found in US5114941A, “Pyrimidinedione derivative compounds, method for preparing same, and antiarrythmic agents containing same” (Mitsui Toatsu Chemicals, Incorporated, priority 1989, dated 1992).

Data set [1] deals with Purkinje fiber of the right ventricular free wall. The data set is described as follows: Influence on myocardial action potential duration time (APD75), isolated right ventricular free wall. More on the design: species or system dog (hybrid adult dog). Conditions: Canis lupus familiaris, 20 min, 20 minutes' incubation; for APD75 prolongation (% change vs before administration) at 1 µg/mL: dose 1.0 μg/ml; for APD75 prolongation (% change vs before administration) at 3 µg/mL: dose 3.0 μg/ml; for APD75 prolongation (% change vs before administration) at 10 µg/mL: dose 10.0 μg/ml. On the procedure:
(1) Influence on myocardial action potential duration time (APD75): To a hybrid adult dog, 30 mg/kg of pentobarbital was administered through a vein, and after being anesthetized, the heart was removed. Afterward, the right ventricular free wall of the heart was cut and taken out in a Tyrode solution. […] In this isolated condition, myocardial action potential duration times (APD75) were measured before and after the administration of the respective compounds prepared in the above examples in Table 1 and d-sotalol as a control medicine, and APD75 (%) was calculated from the measured results in accordance with the formula: APD75 (%)=([…]75 before administration B: APD75 after administration Here, APD75 was measured as follows: […] This measured time was regarded as the myocardial action potential duration time (APD75). […] Incidentally, this test was carried out in accordance with a Sato et al's method [H. Sato, K. Hashimoto, Arzneimeittel Forschung, 34 (1), 3a, 376-380 (1984)].

For data set [2], the system named is ventricular muscle refractory period. The data set is described as follows: Influence on ventricular muscle refractory period (ERP). It is filed as in vivo, dog (mongrel adult dog). Conditions: Canis lupus familiaris, iv, i.v., anesthetized dog, change vs before administration, read-out: ERP (%; extensibility of refractory period). On the procedure: (2) Influence on ventricular muscle refractory period:
Refractory periods were measured in the following manner before and after each of the compounds and d-sotalol shown in Table 1 was separately administered to a vein or a duodenum, and ERP (%; extensibility of refractory period) was calculated from the measured values in accordance with the following formula: […]
W: Refractory period after administration
Y: Refractory period before administration
To a mongrel adult dog, 30 mg/kg of pentobarbital was administered intravenously, and after being anesthetized, a pair of silver-silver chloride electrodes separated by 3 mm was sewn on an opened right ventricule, and electrical stimulation was given at an interval of 400 msec at a duration time of 4 msec under a current twice as much as the threshold. Afterward, a small amount of alcohol was injected into a sinus artery in order to extinguish a pacemaker activity, and the ventricular refractory period (ERP) was measured under ventricule pacing.
That is, 1 train comprised 10 stimulations, and an interval between two of the trains was usually 400 msec. At the time of the refractory period measurement, however, the above interval was shortened every 10 smec, and the interval between the trains at the time when reaction to the first stimulation of the train disappeared was regarded as the refractory period.
In this case, the electrical stimulation was fed in accordance with a program by a heart stimulation device (Diamedical Co., Ltd.; DHM-226-3).

Data set [3] can be described thus: Toxicity test, mortality 24 hours after oral administration. Conditions: mouse, in vivo, 300 mg/kg p.o., mice, 24 hours after administration, read-out: Mortality Rate (%). The procedure: Each of the compounds prepared in the above-mentioned examples shown in Table 2 was administered into a mouse (ddy strain, male). In each case, the administration was effected by oral administration (p.o.) in a dose of 300 mg/kg.
A mortality rate (number of specimens: one group=2 to 4 mice) of the mice 24 hours after the administration was calculated, and the results are set forth in Table 2.

Structures are written as SMILES. Counter-ions that a name gives are not always drawn.

In data set [1], `Cn1c(N2CCN(CCCOc3cccc4oc(-c5ccncc5)cc(=O)c34)CC2)cc(=O)n(C)c1=O` [Compound 25, 1,3-dimethyl-6-(4-[3-[2-(pyridine-4-yl)-4-oxo-4H-1-benzopyran-5-yl]oxypropyl]piperazine-1-yl)-2,4(1H,3H)-pyrimidinedione dihydrochloride] gave an APD75 prolongation (% change vs before administration) at 1 µg/mL of 7%, an APD75 prolongation (% change vs before administration) at 3 µg/mL of 19% and an APD75 prolongation (% change vs before administration) at 10 µg/mL of 27%. Moreover, in data set [2], the change in vivo at 0.1 mg/kg stood at 6.3%, the change in vivo at 0.3 mg/kg was found to be 6.7% and the change in vivo at 1 mg/kg stood at 12.5%. For the same compound, the mortality (as a rule, the percentage killed) at 24 h in data set [3] stood at 0%.

For `Cn1c(N2CCN(CCCOc3cccc4occc(=O)c34)CC2)cc(=O)n(C)c1=O` [Compound 38, 1,3-Dimethyl-6-(4-[3-(4-oxo-4H-1-benzopyran-5-yl)oxypropyl]pyperazine-1-yl)-2,4(1H,3H)-pyrimidinedione hydrochloride], in data set [1], the APD75 prolongation (% change vs before administration) at 1 µg/mL came to 10%, the APD75 prolongation (% change vs before administration) at 3 µg/mL was determined as 20% and the APD75 prolongation (% change vs before administration) at 10 µg/mL turned out to be 39%. In addition, in data set [2], the change in vivo at 0.1 mg/kg was 4.5%, the change in vivo at 0.3 mg/kg stood at 9.3%, the change in vivo at 1 mg/kg is 16% and the change in vivo at 3 mg/kg was 16%. In addition, in data set [3], the mortality at 24 h worked out at 0%.

In data set [1], `CCN(CCCOc1cccc2occ(C)c(=O)c12)CCNc1cc(=O)n(C)c(=O)n1C` [Compound 14, 1,3-dimethyl-6-(2-[N-ethyl-N-[3-(3-methyl-4-oxo-4H-1-benzopyran-5-yl)oxypropyl]amino[ethylamino)-2,4(1H,3H)-pyrimidinedione oxalate] came in with an APD75 prolongation (% change vs before administration) at 1 µg/mL of 4%, an APD75 prolongation (% change vs before administration) at 3 µg/mL of 17% and an APD75 prolongation (% change vs before administration) at 10 µg/mL of 25%. Further, in data set [2], the change in vivo at 0.1 mg/kg amounted to 6.8%, the change in vivo at 0.3 mg/kg came out at 6.8%, the change in vivo at 1 mg/kg turned out to be 10.7% and the change in vivo at 3 mg/kg amounted to 13.6%. Further, the mortality at 24 h in data set [3] is 0%.

In data set [1], `Cc1coc2cccc(OCCCN3CCN(c4cc(=O)n(C)c(=O)n4C)CC3)c2c1=O` [Compound 4, 1,3-dimethyl-6-(4-[3-(3-methyl-4-oxo-4H-1-benzopyran-5-yl)oxypropyl]piperazine-1-yl)-2,4(1H,3H)-pyrimidinedione hydrochloride] returned an APD75 prolongation (% change vs before administration) at 1 µg/mL of 24% and an APD75 prolongation (% change vs before administration) at 3 µg/mL of 30%. In addition, in data set [2], the change in vivo at 0.1 mg/kg was 6.3%, the change in vivo at 0.3 mg/kg is 12.5%, the change in vivo at 1 mg/kg worked out at 12.5% and the change in vivo at 3 mg/kg amounted to 25%. For the same compound, the mortality at 24 h in data set [3] was determined as 0%.

Regarding `Cn1c(N2CCN(CCCOc3cccc4oc(-c5ccccc5)cc(=O)c34)CC2)cc(=O)n(C)c1=O` [Compound 39, 1,3-Dimethyl-6-(4-[3-(2-phenyl-4-oxo-4H-1-benzopyran-5-yl)oxypropyl]piperazine-1-yl)-2,4(1H,3H)-pyrimidinedione oxalate], in data set [1], the APD75 prolongation (% change vs before administration) at 1 µg/mL was determined as 7% and the APD75 prolongation (% change vs before administration) at 3 µg/mL amounted to 20%. In data set [2], the change in vivo at 0.1 mg/kg amounted to 7.1%, the change in vivo at 0.3 mg/kg was 14.3%, the change in vivo at 1 mg/kg stood at 14.3% and the change in vivo at 3 mg/kg was 14.3%. The mortality at 24 h in data set [3] was 0%.

In the case of `Cc1cc(=O)c2c(OCCCN3CCN(c4cc(=O)n(C)c(=O)n4C)CC3)cccc2o1` [Compound 40, 1,3-Dimethyl-6-(4-[3-(2-methyl-4-oxo-4H-1-benzopyran-5-yl)oxypropyl-piperazine-1-yl)-2,4(1H,3H)-pyrimidinedione hydrochloride], in data set [1], the APD75 prolongation (% change vs before administration) at 1 µg/mL amounted to 18%, the APD75 prolongation (% change vs before administration) at 3 µg/mL was 25% and the APD75 prolongation (% change vs before administration) at 10 µg/mL was 29%. In addition, in data set [2], the change in vivo at 0.1 mg/kg stood at 6.9%, the change in vivo at 0.3 mg/kg came to 10.3%, the change in vivo at 1 mg/kg came to 13.9% and the change in vivo at 3 mg/kg amounted to 17.4%. Also, the mortality at 24 h in data set [3] is 0%.

In data set [1], `CCOC(=O)c1cc(=O)c2ccc(OCCCN3CCN(c4cc(=O)n(C)c(=O)n4C)CC3)cc2o1` [Compound 50, 1,3-Dimethyl-6-(4-[3-(2-ethoxycarbonyl-4-oxo-4H-1-benzopyran-7-yl)oxypropyl]piperazine-1-yl)-2,4-(1H,3H)-pyrimidinedione oxalate] had an APD75 prolongation (% change vs before administration) at 1 µg/mL of 7%, an APD75 prolongation (% change vs before administration) at 3 µg/mL of 14% and an APD75 prolongation (% change vs before administration) at 10 µg/mL of 28%. In addition, in data set [2], the change in vivo at 0.1 mg/kg was 0%, the change in vivo at 0.3 mg/kg came out at 0%, the change in vivo at 1 mg/kg is 0% and the change in vivo at 3 mg/kg stood at 6.3%.

Consider `Cc1oc2cccc(OCCCN3CCN(c4cc(=O)n(C)c(=O)n4C)CC3)c2c(=O)c1C` [Compound 7, 1,3-dimethyl-6-(4-[3-(2,3-dimethyl-4-oxo-4H-1-benzopyran-5-yl)oxypropyl]piperazine-1-yl)-2,4(1H,3H)-pyrimidinedione oxalate], for which, in data set [1], the APD75 prolongation (% change vs before administration) at 1 µg/mL is 25% and the APD75 prolongation (% change vs before administration) at 3 µg/mL was found to be 31%. In data set [2], the change in vivo at 0.1 mg/kg worked out at 12%, the change in vivo at 0.3 mg/kg worked out at 18%, the change in vivo at 1 mg/kg is 18% and the change in vivo at 3 mg/kg stood at 24%. Also, in data set [3], the mortality at 24 h came to 0%.

For the compound `Cn1c(N2CCN(CCCOc3ccc4c(=O)cc(-c5ccccc5)oc4c3)CC2)cc(=O)n(C)c1=O` [Compound 48, 1,3-Dimethyl-6-(4-[3-(2-phenyl-4-oxo-4H-1-benzopyran-7-yl)oxypropyl]piperazine-1-yl)-2,4(1H,3H)-pyrimidinedione oxalate], in data set [1], the APD75 prolongation (% change vs before administration) at 1 µg/mL came out at 7% and the APD75 prolongation (% change vs before administration) at 3 µg/mL was 12%. For the same compound, in data set [2], the change in vivo at 0.1 mg/kg was 0%, the change in vivo at 0.3 mg/kg was determined as 0%, the change in vivo at 1 mg/kg is 6.9% and the change in vivo at 3 mg/kg was 20.4%.

For `Cn1c(N2CCN(CCCOc3cccc4c3C(=O)CC(c3ccccc3)O4)CC2)cc(=O)n(C)c1=O` (stereo not drawn) [Compound 21, 1,3-dimethyl-6-(4-[3-(2-phenyl-4-oxo-2,3-dihydro-4H-1-benzopyran-5-yl)oxypropyl]piperazine-1-yl)-2,4(1H,3H)-pyrimidinedione oxalate], in data set [1], the APD75 prolongation (% change vs before administration) at 1 µg/mL was 12%, the APD75 prolongation (% change vs before administration) at 3 µg/mL was 16% and the APD75 prolongation (% change vs before administration) at 10 µg/mL came out at 20%. In addition, in data set [2], the change in vivo at 0.1 mg/kg came out at 0%, the change in vivo at 0.3 mg/kg is 0%, the change in vivo at 1 mg/kg worked out at 0% and the change in vivo at 3 mg/kg was 7.7%. Further, the mortality at 24 h in data set [3] worked out at 0%.

In turn, `CC(C)NCC(O)c1ccc(NS(C)(=O)=O)cc1` (stereo not drawn) [d-sotalol, reference compound] displayed an APD75 prolongation (% change vs before administration) at 0.3 µg/mL in data set [1] (dose 0.3 μg/ml) of 0%. Further, in data set [1], the APD75 prolongation (% change vs before administration) at 1 µg/mL came to 3%, the APD75 prolongation (% change vs before administration) at 3 µg/mL came out at 7.4% and the APD75 prolongation (% change vs before administration) at 10 µg/mL worked out at 15.8%. Besides, in data set [2], the change in vivo at 0.1 mg/kg came to 1.7%, the change in vivo at 0.3 mg/kg is 6.7%, the change in vivo at 1 mg/kg came out at 8.7% and the change in vivo at 3 mg/kg is 15.5%.
